The text below walks through data of article PMC11178805, “Ligand-based design of [^18F]OXD-2314 for PET imaging in non-Alzheimer’s disease tauopathies” (Nature Communications, 2024).

Structures are written as SMILES. Several values for one entry are separate records, joined by “and”; a condition that tells them apart may be missing. Equal entries are not always repeated.

As usually defined, the Ki is a dissociation constant, usually derived from enzyme kinetics or from competition with a known ligand. A higher Ki goes with weaker binding. The term inhibition denotes the percentage by which the read-out fell short of the control.

Data set [1] can be described thus: Radiometabolite analysis in rat plasma and brain homogenates. It counts as in vivo, rat (Sprague-Dawley). Particulars: for parent fraction of radioactivity in brain homogenates: rats. How it is done:
Radiometabolite analysis was performed ex vivo in plasma and brain homogenates from rats (n = 5, 3 female and 2 male) at 30 and 60 min after radiotracer injection (Figs. S11–S16). […] The parent fraction in plasma was 6% at 30 min and 5% at 60 min in the two male rats, respectively, and 32% at 30 min (n = 1) and 18% and 17% at 60 min (n = 2) in the female rats. Different rates of metabolism between male and female rats may have contributed to the differences in kinetics observed in the brain PET scans. No lipophilic radiometabolites were detected in plasma or brain. Parent [^18F]OXD-2314 accounted for 82 ± 7% (n = 2) and 80 ± 5% (n = 3) of the radioactivity in rat brain homogenates by 30 and 60 min post-injection of the radiotracer, respectively. The rats were not perfused with saline immediately prior to sacrifice, so that radiometabolites in blood were trapped in the brain and likely accounted for a portion of the polar radiometabolites found in brain, as cerebral blood volume in rats is approximately 4–5% of total brain volume.
Five adult Sprague-Dawley rats (3 F/2 M, 378 ± 51 g) were used in [^18F]OXD-2314 radiometabolite analysis. Following injection of 46.7 ± 3.3 MBq of the radiotracer through a tail-vein catheter, rats were sacrificed by decapitation 30 min (n = 2) and 60 min (n = 3) post-injection. Trunk blood was collected and centrifuged for 5 min at 2500 × g, and the plasma was collected. Brains were quickly extracted and homogenized with a BeadBug™ (Benchmark Scientific; Sayreville, NJ, USA) in 3.2 mL acetonitrile together with 1 μg of unlabeled parent compound, then 1.6 mL deionized H2O was added and mixed. The homogenate was centrifuged at 12,000 × g for 5 min, and the supernatant was collected. Parent radiotracer was separated from metabolites in plasma and brain extract by column-switching HPLC in a mobile phase of 40/60 CH3CN/100 mM NH4HCO2 (v/v) and analyzed with PowerChrom 2.6.15 (eDAQ).

Data set [2] is described as follows: Dynamic PET imaging with [^18F]OXD-2314 in rhesus macaque (baseline and displacement). It counts as in vivo. The method, then:
Dynamic PET imaging was performed in a rhesus macaque (macaca mulatta) monkey following the injection of [^18F]OXD-2314 at baseline (104.9 MBq, n = 1) and was repeated in a second [^18F]OXD-2314 study (115.8 MBq, n = 1) where a displacing dose of unlabeled OXD-2314 (0.5 mg/kg) was administered 10 min after [^18F]OXD-2314 injection to verify the absence of specific binding in NHP brain. Venous blood samples were drawn to characterize the metabolic fate of [^18F]OXD-2314 in the macaque. Dynamic [^18F]OXD-2314 PET imaging was also performed in a male (106.6 MBq, n = 1) and a female (115.8 MBq, n = 1) baboon (papio anubis), and venous blood samples were drawn in both baboons to characterize potential effects of sex on radiometabolism. Bilateral regions of interest were defined on 5–8 contiguous axial image planes for the lateral temporal cerebral cortex, cerebellum, striatum, and whole brain, which were used to sample dynamic [^18F]OXD-2314 PET images to determine the time-varying radioactivity concentration expressed in SUV units. [^18F]OXD-2314 readily entered macaque brain (whole brain peak ~2.2 SUV at ~2 min) and distributed uniformly throughout cortical and subcortical grey matter regions (Fig. 5A). […] Radiometabolite analysis of macaque venous blood identified only one, polar radiometabolite, which increased from 37% at 10 min to 77% at 90 min post-injection and was not likely brain penetrant (Figs. S19, S20).
NHP imaging studies in a male (13 kg) macaca mulata monkey and male (25.7 kg) and female (14.2 kg) papio anubis baboons were carried out in accordance with the guidelines set forth by the Institutional Animal Care and Use Committee at the University of Pittsburgh. Additional details regarding the maintenance of an active environmental enrichment program for the housed NHPs are described in Supplemental Information. Dynamic [^18F]OXD-2314 PET imaging of the brains of the isoflurane anesthetized NHPs was performed using a Siemens Biograph mCT Flow 64-4 R PET/CT scanner ([…], maximum intrinsic spatial resolution of 4.3 mm FWHM[53]. Following a low-dose CT scan for attenuation correction of PET emission data, [^18F]OXD-2314 was injected intravenously and emission data were acquired in list-mode for a period of 90 min. Emission data were binned into a dynamic series of 32 frames (20 sec-10 min) and reconstructed using filtered back projection with Fourier rebinning (FORE + FBP) with standard corrections applied that included attenuation, scatter, electronics dead-time, and physical decay.

The target in data set [3] is 3R/4R-tau aggregates in AD tissue (Homo sapiens, UniProt P10636). The data set can be described thus: Competition binding vs [^3H]OXD-2314 in AD tissue. How it is done:
Fresh frozen, autopsy-confirmed human PD anterior cingulate cortex brain tissue blocks (1 cm^3) were obtained from Dr. Thomas Beach at Banner/Sun Health AZ with funding from the Michael J. Fox Foundation and contained frequent α-synuclein aggregates and no other detectable aggregated amyloid species. The frozen tissue blocks were prepared for the binding assays as previously described[47],[48], except that equal quantities of the homogenates of three AD brains (AD1-AD3, Table S1) were pooled, as were homogenates from three PSP brains (PSP1-PSP3), three CBD brains (CBD1-CBD3), three Pick’s brains (PiD1-PiD3), and 4 PD brains (PD1-PD4) in order to help minimize the inter-subject variability within the different neuropathological groups. Individual subcortical brain tissues from a PSP subject (PSP4) and a CBD subject (CBD4), as well as with the middle frontal cortex of a control subject, were prepared for the binding assays as previously described[47],[48].
The equilibrium inhibition constant (Ki) values of the unlabeled compounds were determined versus tritium-labeled radioligands using published methods.

Data set [4] deals with T1, norepinephrine transporter(h) (Homo sapiens, UniProt P23975).
T1 construct: purchased Eurofins, France (contract screening)
The data set can be described thus: In vitro pharmacology binding screen (Eurofins): norepinephrine transporter. The settings on record: read-out: inhibition of antagonist radioligand (protriptyline) binding to norepinephrine transporter(h). How it is done:
OXD-2314 binding to CNS receptors was calculated as a percentage of inhibition of a receptor-specific radioligand. Enzyme inhibition was calculated as the percent inhibition of baseline enzyme activity where inhibition above 50% was considered significant. […] Norepinephrine transports are expressed in low concentration throughout the brain and its relative concentration are not affected by aging or neurodegeneration. 5-lipoxygenase may be overexpressed in aging brain and play some role in neurodegeneration, which could be necessary to further investigate in vivo[42]. Off-target binding to monoamine oxidase A and B (MAO-A and MAO-B) has been seen with some tau PET radiotracers[43],[44].

3R/4R-tau aggregates in AD tissue, sequence (P10636 623-758 limits assumed): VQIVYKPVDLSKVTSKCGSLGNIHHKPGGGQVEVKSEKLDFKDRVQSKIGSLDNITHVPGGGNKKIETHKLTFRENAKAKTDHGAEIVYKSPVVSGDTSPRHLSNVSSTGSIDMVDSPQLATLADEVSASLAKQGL
T1 sequence (P23975 whole entry): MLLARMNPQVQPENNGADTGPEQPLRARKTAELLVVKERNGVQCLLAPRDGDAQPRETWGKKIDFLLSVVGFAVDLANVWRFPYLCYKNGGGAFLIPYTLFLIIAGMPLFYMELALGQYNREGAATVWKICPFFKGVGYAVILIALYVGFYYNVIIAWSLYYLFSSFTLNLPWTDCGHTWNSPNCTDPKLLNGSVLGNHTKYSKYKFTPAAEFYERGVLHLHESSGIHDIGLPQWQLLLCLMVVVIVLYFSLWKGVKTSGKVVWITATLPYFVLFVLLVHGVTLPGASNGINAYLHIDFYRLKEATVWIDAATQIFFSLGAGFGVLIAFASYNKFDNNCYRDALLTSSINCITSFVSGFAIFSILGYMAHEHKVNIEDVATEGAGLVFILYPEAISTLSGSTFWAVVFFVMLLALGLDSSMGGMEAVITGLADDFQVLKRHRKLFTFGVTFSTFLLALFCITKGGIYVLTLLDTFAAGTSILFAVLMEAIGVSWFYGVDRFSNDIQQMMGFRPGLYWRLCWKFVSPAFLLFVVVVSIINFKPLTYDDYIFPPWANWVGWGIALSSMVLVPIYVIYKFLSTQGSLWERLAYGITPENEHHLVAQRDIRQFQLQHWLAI

Take `CO[C@H]1CCCN(c2ccc(-c3cc4cc(O)ccc4[nH]3)c([18F])n2)C1` [[^18F]OXD-2314]: the “% Parent Brain” value is 77.11% in data set [1] (female rat, 30 min); 81.01% and 83.78% in data set [1] (female rats, 60 min); 87.09% in data set [1] (male rat, 30 min); 74.16% in data set [1] (male rat, 60 min). The “parent fraction in plasma” value in data set [1] (female rat, 30 min post-injection) was 32% and 32.43%; in data set [1] (female rats, 60 min post-injection), 18% and 17% and 17.66% and 17.32%; in data set [1] (male rat, 30 min post-injection), 6% and 5.79%; in data set [1] (male rat, 60 min post-injection), 5%. Besides, the “parent fraction of radioactivity in brain homogenates” value in data set [1] (30 min post-injection, n = 2) is recorded as 82 ± 7%; in data set [1] (60 min post-injection, n = 3) it was 80 ± 5%. For the same compound, the initial brain uptake in data set [2] (NHP) was greater than 2 SUV. Further, the “ratio initial maximum to late minimum brain radioactivity” value in data set [2] (NHP) is recorded as ~ 4. Also, the “2:90 min radioactivity concentration ratio” value in data set [2] (macaque whole brain) was 3.9. In addition, in data set [2] (macaque, baseline), the “time of whole brain peak” value is given as ~ 2 min. In addition, the “whole brain clearance half-time” value in data set [2] (macaque, baseline) is ~ 22 min. Also, in data set [2] (macaque, baseline, n = 1), the “whole brain peak uptake” value is ~ 2.2 SUV.

Turning to `COC1CCCN(c2ccc(-c3cc4cc(O)ccc4[nH]3)c(F)n2)C1` (stereo not drawn) [OXD-2314, 2-(2-fluoro-6-(3-methoxypiperidin-1-yl)pyridin-3-yl)-1H-indol-5-ol], in data set [3], the affinity corresponds to a Ki of 4.8 ± 0.3 nM. Also, the inhibition at 10 µM in data set [4] is 62.9%.
